{"source": "patent US8318681B2", "about": "“Utilization of peptides as active ingredients for slimming” (ISP Investments Inc., priority 2006, dated 2012)", "test_system": "pre-adipocyte cell line 3T3-L1", "assay": "Activity of the peptides on adipocytes: 3T3-L1 pre-adipocytes differentiated into mature adipocytes, Oil Red staining of lipid vacuoles, microscope observation", "assay_type": "cell-based", "settings": "mature adipocytes from 3T3-L1, treated with solution containing the peptide", "experimental": "The number and the size of the lipid vacuoles present in the mature adipocytes are evaluated by microscope observation after specific staining with the “Oil Red” stain.\nThe pre-adipocyte cells 3T3-L1 are seeded in Labteks and maintained until 100% confluence in DMEM 10% SVF culture medium. The cells are treated with the peptide of sequence ID N° (5), representative of the family of peptides per the invention, placed in 1% solution à 1% starting with a solution of 50 ppm. Nontreated controls were prepared in parallel.\nOnce confluence is achieved, the cells are cultivated in the presence of differentiation inducers (IBMX, dexamethasone and insulin), so as to bring about the final differentiation into mature adipocytes. The differentiated adipocytes are further incubated for 3 hours with the peptide being tested in a concentration of 1%. Nontreated controls were prepared in parallel.\nThe adipocytes are then fixed for 10 minutes in a 4% formol and NaCl solution, after which the “Oil Red” stain solution (Sigma, O-0625) is applied for 15 minutes. The cells are then rinsed with warm water and mounted on slides, in hydrophilic medium (Aquatex). The observation is done under an optical microscope.", "note": "Ends that are not written are not given here."}
{"substance": "GLYDNLE [sequence ID N^o (5)]", "values": [{"measurement": "morphology of mature adipocytes", "setting": "versus nontreated controls (voluminous spherical shape)", "result": "less rounded"}, {"measurement": "content of intra-adipocyte lipid vesicles", "setting": "versus nontreated controls, Oil Red stain", "result": "clearly diminished"}]}
